Structures are written as SMILES. Some results are limits rather than exact numbers.

The target in the test is T1, CRF1 receptors (Homo sapiens, UniProt P34998).
T1 construct: endogenous in cells; host or cells: IMR-32 cells, transformed with 2.5 µM 5'-bromo-2'-deoxyuridine for 10 days; membrane preparation
T1 sequence (P34998 24-415): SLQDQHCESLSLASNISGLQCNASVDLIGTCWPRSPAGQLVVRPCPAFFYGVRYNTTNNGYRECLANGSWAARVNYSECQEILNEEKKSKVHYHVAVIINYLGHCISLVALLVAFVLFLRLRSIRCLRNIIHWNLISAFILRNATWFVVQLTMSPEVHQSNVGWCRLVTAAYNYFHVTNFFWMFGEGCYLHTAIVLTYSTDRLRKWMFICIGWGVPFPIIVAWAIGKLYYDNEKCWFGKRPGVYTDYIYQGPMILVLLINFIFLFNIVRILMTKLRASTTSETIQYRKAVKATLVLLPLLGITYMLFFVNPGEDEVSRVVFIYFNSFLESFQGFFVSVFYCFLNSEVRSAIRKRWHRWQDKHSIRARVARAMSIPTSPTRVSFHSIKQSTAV
In words: CRF1 receptor radioligand binding assay ([125I]-oCRF competition, IMR-32 cell membranes). Conditions: IMR-32 cell membranes, [125I]-oCRF 100 pM; read-out: Ki (CRF-1R). The method in brief:
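Buffer: Tris pH 7.2 with MgCl2, BSA, Triton X-100, aprotinin, leupeptin; reaction stopped with ice-cold wash and filtered. Nonspecific binding set with 10 μM oCRF.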
Take `CCCN(Cc1ccc(F)cc1)Cc1c(C(F)(F)F)nc2n1CCCN2c1c(C)cc(C)cc1Cl` [Example 132, [8-(2-Chloro-4,6-dimethyl-phenyl)-2-trifluoromethyl-5,6,7,8-tetrahydro-imidazo[1,2-a]pyrimidin-3-ylmethyl]-(4-fluoro-benzyl)-propyl-amine]: the Ki is less than 1000 nM. For the molecule `CCc1nc2n(-c3c(C)cc(C)cc3C)c(Cl)cn2c1C(=O)N(CC)CC` [Example 293, 6-Chloro-2-ethyl-7-(2,4,6-trimethylphenyl)-7H-imidazo[1,2-a]imidazole-3-carboxylic acid N,N-diethylamide], the Ki was less than 1000 nM. As for `C=C(C)CN(CC)Cc1c(C(F)(F)F)nc2n(-c3c(C)cc(C)cc3C)c(Cl)cn12` [Example 312, [6-Chloro-2-trifluoromethyl-7-(2,4,6-trimethyl-phenyl)-7H-imidazo[1,2-a]imidazol-3-ylmethyl]-ethyl-(2-methyl-allyl)-amine], the Ki is less than 100 nM. Regarding `CCCN(CCC(F)(F)F)C(=O)c1c(CC)nc2n1CCN2c1c(C)cc(C)cc1C` [Example 12, 2-Ethyl-7-(2,4,6-trimethyl-phenyl)-6,7-dihydro-5H-imidazo[1,2-a]imidazole-3-carboxylic acid propyl-(3,3,3-trifluoropropyl)-amide], the Ki is less than 1000 nM. As to `CCCN(Cc1c(C(F)(F)F)nc2n(-c3c(C)cc(C)cc3C)c(Cl)cn12)CC(F)(F)C(F)(F)F` [Example 323, [6-Chloro-2-trifluoromethyl-7-(2,4,6-trimethyl-phenyl)-7H-imidazo[1,2-a]imidazol-3-ylmethyl]-(2,2,3,3,3-pentafluoro-propyl)-propyl-amine], the inhibition constant Ki is less than 1000 nM. Consider `C=CCN(CC=C)Cc1c(C(F)(F)F)nc2n1CCCN2c1c(C)cc(C)cc1Cl` [Example 103, Diallyl-[8-(2-chloro-4,6-dimethyl-phenyl)-2-trifluoromethyl-5,6,7,8-tetrahydro-imidazo[1,2-a]pyrimidin-3-ylmethyl]-amine], for which the Ki is less than 100 nM. As to `CCc1nc2n(c1C(=O)N(CC1CC1)CC1CC1)CCN2c1c(C)cc(C)cc1C` [Example 8, 2-Ethyl-7-(2,4,6-trimethyl-phenyl)-6,7-dihydro-5H-imidazo[1,2-a]imidazole-3-carboxylic acid cyclopropylmethyl-(cyclopropylmethyl)-amide], the inhibitory constant (Ki) is less than 100 nM. `CCCN(Cc1c(C(F)(F)F)nc2n(-c3c(C)cc(C)cc3C)c3ccccc3n12)CC(F)(F)C(F)(F)F` [Example 158, (2,2,3,3,3-Pentafluoro-propyl)-propyl-[2-trifluoromethyl-8-(2,4,6-trimethyl-phenyl)-8H-1,3a,8-triaza-cyclopenta[α]inden-3-ylmethyl]-amine]: the Ki was less than 100 nM.

With `CC(C)c1ccc(-n2c3ccccc3n3c(CN(CCC(F)(F)F)Cc4ccc(F)cc4)c(C(F)(F)F)nc23)c(Br)c1` [Example 199, [8-(2-Bromo-4-isopropyl-phenyl)-2-trifluoromethyl-8H-1,3a,8-triaza-cyclopenta[α]inden-3-ylmethyl]-(4-fluoro-benzyl)-(3,3,3-trifluoro-propyl)-amine], the inhibition constant Ki was less than 10000 nM. The same measure for `CCCN(Cc1c(C(F)(F)F)nc2n(-c3ccc(Cl)cc3Cl)c3ccccc3n12)CC1CCC1` [Example 186, Cyclobutylmethyl-[8-(2,4-dichloro-phenyl)-2-trifluoromethyl-8H-1,3a,8-triaza-cyclopenta[α]inden-3-ylmethyl]-propyl-amine]: less than 10000 nM; for `CCc1nc2n(c1C(=O)N(CC1CC1)CC(F)(F)F)CCN2c1c(C)cc(C)cc1C` [Example 5, 2-Ethyl-7-(2,4,6-trimethyl-phenyl)-6,7-dihydro-5H-imidazo[1,2-a]imidazole-3-carboxylic acid cyclopropylmethyl-(2,2,2-trifluoro-ethyl)-amide]: less than 100 nM. The result for `CCN(Cc1c(C(F)(F)F)nc2n(-c3c(C)cc(C)cc3C)c(Cl)cn12)CC1CC1` [Example 319, [6-Chloro-2-trifluoromethyl-7-(2,4,6-trimethyl-phenyl)-7H-imidazo[1,2-a]imidazol-3-ylmethyl]-cyclopropylmethyl-ethyl-amine] reads less than 10 nM; that for `C=CCN(CCC)Cc1c(C(F)(F)F)nc2n(-c3c(C)cc(C)cc3C)c(Cl)cn12` [Example 339, Allyl-[6-chloro-2-trifluoromethyl-7-(2,4,6-trimethyl-phenyl)-7H-imidazo[1,2-a]imidazol-3-ylmethyl]-propyl-amine], less than 10 nM. For the molecule `CCN(Cc1c(C(F)(F)F)nc2n1CCCN2c1c(C)cc(C)cc1C)CC1CC1` [Example 75, Cyclopropylmethyl-ethyl-[2-trifluoromethyl-8-(2,4,6-trimethyl-phenyl)-5,6,7,8-tetrahydro-imidazo[1,2-a]pyrimidin-3-ylmethyl]-amine], the Ki was less than 100 nM. Turning to `Cc1cc(C)c(N2CCCn3c2nc(C(F)(F)F)c3CN(CCC2CC2)CCC(F)(F)F)c(Cl)c1` [Example 122, [8-(2-Chloro-4,6-dimethyl-phenyl)-2-trifluoromethyl-5,6,7,8-tetrahydro-imidazo[1,2-a]pyrimidin-3-ylmethyl]-(2-cyclopropyl-ethyl)-(3,3,3-trifluoro-propyl)-amine], the Ki is less than 1000 nM. The result for `CCc1nc2n(c1C(=O)N(CC)CCC1CC1)CCN2c1c(C)cc(C)cc1C` [Example 16, 2-Ethyl-7-(2,4,6-trimethyl-phenyl)-6,7-dihydro-5H-imidazo[1,2-a]imidazole-3-carboxylic acid (2-cyclopropyl-ethyl)-ethyl-amide] reads less than 1000 nM. For the molecule `Cc1cc(C)c(N2CCCn3c2nc(C(F)(F)F)c3CN2CCCCC2)c(C)c1` [Example 62, 3-Piperidin-1-ylmethyl-2-trifluoromethyl-8-(2,4,6-trimethyl-phenyl)-5,6,7,8-tetrahydro-imidazo[1,2-a]pyrimidine], the Ki was less than 1000 nM. As for `Cc1cc(C)c(N2CCCn3c2nc(C(F)(F)F)c3CN(CC2CC2)CC(F)(F)F)c(Cl)c1` [Example 135, [8-(2-Chloro-4,6-dimethyl-phenyl)-2-trifluoromethyl-5,6,7,8-tetrahydro-imidazo[1,2-a]pyrimidin-3-ylmethyl]-cyclopropylmethyl-(2,2,2-trifluoroethyl)-amine], the Ki is less than 100 nM. As to `CCN(CCc1ccccc1)Cc1c(C(F)(F)F)nc2n1CCCN2c1c(C)cc(C)cc1C` [Example 84, Ethyl-phenethyl-[2-trifluoromethyl-8-(2,4,6-trimethyl-phenyl)-5,6,7,8-tetrahydro-imidazo[1,2-a]pyrimidin-3-ylmethyl]-amine], the Ki is less than 1000 nM. `Cc1cc(C)c(N2CCCn3c2nc(C(F)(F)F)c3CN2CCCCC2C)c(Cl)c1` (stereo not drawn) [Example 100, 8-(2-Chloro-4,6-dimethyl-phenyl)-3-(2-methyl-piperidin-1-ylmethyl)-2-trifluoromethyl-5,6,7,8-tetrahydro-imidazo[1,2-a]pyrimidine]: the inhibition constant Ki is less than 1000 nM. On to `FC(F)(F)CN(Cc1c(C(F)(F)F)nc2n(-c3ccc(Cl)cc3Cl)c3ccccc3n12)CC1CCC1` [Example 185, Cyclobutylmethyl-[8-(2,4-dichloro-phenyl)-2-trifluoromethyl-8H-1,3a,8-triaza-cyclopenta[α]inden-3-ylmethyl]-(2,2,2-trifluoro-ethyl)-amine], for which the Ki was less than 10000 nM.

These data come from patent publication US7125990B2, “Imidazolyl derivatives as corticotropin releasing factor inhibitors” (Bristol-Myers Squibb COmpany, priority 2001, dated 2006).
